Assay results as given in ChEMBL document CHEMBL5137035 (Eur J Med Chem, 2022).
pIC50: −log10 of the molar value.

How the values were obtained:
[1] = target: T1, Dihydroorotate dehydrogenase (quinone), mitochondrial (Homo sapiens, UniProt Q02127); experiment: Inhibition of human N-terminal SUMO-tagged DHODH expressed in Escherichia coli BL21(DE3) at 100 nM using dihydroorotate as substrate by DCIP based microplate reader analysis relative to control
[2] = target: T1, Dihydroorotate dehydrogenase (quinone), mitochondrial; experiment: Inhibition of human N-terminal SUMO-tagged DHODH expressed in Escherichia coli BL21(DE3) at 1 uM using dihydroorotate as substrate by DCIP based microplate reader analysis relative to control
[3] = target: T1, Dihydroorotate dehydrogenase (quinone), mitochondrial; experiment: Inhibition of human N-terminal SUMO-tagged DHODH expressed in Escherichia coli BL21(DE3) using dihydroorotate substrate by DCIP based microplate reader analysis
Raji = experiment: Antiproliferative activity against human Raji cells assessed as cell growth inhibition measured after 96 hrs by MTT assay; format: functional, cell-based
[4] = Toxicity in BALB/c mouse xenografted with HCT-116 cells assessed as side effect at 30 mg/kg, po and measured at 18 day; format: organism-based; settings: in vivo, 432 h
[5] = Toxicity in BALB/c mouse assessed as histopathological changes in lungs at 400 mg/kg, po measured after 14 days by H and E staining analysis; format: organism-based; settings: in vivo, 336 h, time 14 day
[6] = Toxicity in BALB/c mouse assessed as adverse effect at 400 mg/kg, po measured for 14 days; format: organism-based; settings: in vivo, 336 h, time 14 day
[7] = Toxicity in BALB/c mouse assessed as histopathological changes in heart at 400 mg/kg, po measured after 14 days by H and E staining analysis; format: organism-based; settings: in vivo, 336 h, time 14 day
[8] = Hepatotoxicity in BALB/c mouse assessed as change in blood ALP level at 400 mg/kg, po measured after 14 days by biochemical assay; format: toxicity, organism-based; settings: in vivo, 336 h, time 14 day
[9] = Renal toxicity in BALB/c mouse assessed as change in blood uric acid level at 400 mg/kg, po measured after 14 days by biochemical assay; format: organism-based; settings: in vivo, 336 h, time 14 day
HCT-116 [10] = experiment: Antitumor activity against human HCT-116 cells xenografted in nude mouse assessed as tumor growth inhibition at 30 mg/kg, po; format: functional; settings: read-out: TGI
[11] = Toxicity in BALB/c mouse assessed as histopathological changes in spleen at 400 mg/kg, po measured after 14 days by H and E staining analysis; format: organism-based; settings: in vivo, 336 h, time 14 day
[12] = Toxicity in BALB/c mouse xenografted with HCT-116 cells assessed as animal death at 30 mg/kg, po and measured at 18 day; format: organism-based; settings: in vivo, 432 h
[13] = Toxicity in BALB/c mouse assessed as histopathological changes in kidney at 400 mg/kg, po measured after 14 days by H and E staining analysis; format: organism-based; settings: in vivo, 336 h, time 14 day
[14] = Toxicity in BALB/c mouse assessed as histopathological changes in liver at 400 mg/kg, po measured after 14 days by H and E staining analysis; format: organism-based; settings: in vivo, 336 h, time 14 day
HCT-116 [15] = experiment: Antiproliferative activity against human HCT-116 cells expressing human DHODH assessed as reduction in cell viability measured after 96 hrs by MTT assay; format: functional, cell-based; settings: HCT-116, 96 h
[16] = Acute toxicity in BALB/c mouse assessed as animal death at 400 mg/kg, po measured at 2 days; format: organism-based; settings: in vivo, 48 h, time 2 day

T1 sequence (Q02127 whole entry): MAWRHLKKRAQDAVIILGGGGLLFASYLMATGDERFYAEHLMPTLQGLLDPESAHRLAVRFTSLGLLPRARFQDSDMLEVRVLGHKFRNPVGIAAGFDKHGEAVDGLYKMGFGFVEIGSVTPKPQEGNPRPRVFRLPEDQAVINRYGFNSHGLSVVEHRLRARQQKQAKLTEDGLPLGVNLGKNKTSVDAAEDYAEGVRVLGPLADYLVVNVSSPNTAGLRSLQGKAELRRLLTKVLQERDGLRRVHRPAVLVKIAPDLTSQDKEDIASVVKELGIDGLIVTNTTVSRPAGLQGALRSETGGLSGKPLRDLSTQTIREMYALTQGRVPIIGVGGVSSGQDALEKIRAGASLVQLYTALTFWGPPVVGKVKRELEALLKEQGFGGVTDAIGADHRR

inhibition [1] [%] | inhibition [2] [%] | pIC50 [3] | SMILES | other results
65.2 | 93.1 | 7.38 | CCOc1cc(NC(=O)/C(C#N)=C(/C)O)c(F)cc1-c1cccc(OC)c1 | –
57.7 | 91.8 | 7.28 | COc1cccc(-c2cc(F)c(NC(=O)/C(C#N)=C(/C)O)cc2OC)c1 | –
52.3 | 89.7 | – | CCC(C)Oc1cc(NC(=O)/C(C#N)=C(/C)O)c(F)cc1-c1ccc(F)nc1 (centres undefined) | –
89.9 | 97.4 | 7.89 | CCC(C)Oc1cc(NC(=O)/C(C#N)=C(/C)O)c(F)cc1-c1cc2ccccc2o1 (centres undefined) | –
80.1 | 97.5 | 7.52 | CCC(C)Oc1cc(NC(=O)/C(C#N)=C(/C)O)c(F)cc1-c1ccc(F)c(F)c1 (centres undefined) | –
64 | 93.6 | 7.37 | COc1cccc(-c2cc(F)c(NC(=O)/C(C#N)=C(/C)O)cc2OCC2CCCCC2)c1 | –
34.1 | 77.2 | – | CCC(C)Oc1cc(NC(=O)/C(C#N)=C(/C)O)c(F)cc1-c1ccc(C(F)(F)F)cc1 (centres undefined) | –
48.3 | 89.8 | – | COc1cccc(-c2cc(F)c(NC(=O)/C(C#N)=C(/C)O)cc2OCc2ccccc2F)c1 | –
58.5 | 92.5 | – | C=CCOc1cc(NC(=O)/C(C#N)=C(/C)O)c(F)cc1-c1cccc(OC)c1 | –
91.2 | 99.2 | 8.04 | CCC(C)Oc1cc(NC(=O)/C(C#N)=C(/C)O)c(F)cc1-c1cccc(OC)c1 (centres undefined) | pIC50 (Raji): 6.21

The next lines start with the compound.

SMILES | inhibition [1] [%] | inhibition [2] [%] | pIC50 [3] | other results
CCC(C)Oc1cc(NC(=O)/C(C#N)=C(/C)O)c(F)cc1-c1cccc(OC(F)(F)F)c1 (centres undefined) | 92.4 | 99.2 | 7.96 | pIC50 (Raji): 6.89
CCCC(C)Oc1cc(NC(=O)/C(C#N)=C(/C)O)c(F)cc1-c1cccc(OC)c1 (centres undefined) | 86.5 | 98.4 | 7.84 | –
CCCOc1cc(NC(=O)/C(C#N)=C(/C)O)c(F)cc1-c1cccc(OC)c1 | 68.2 | 93.6 | 7.46 | –
COc1cccc(-c2cc(F)c(NC(=O)/C(C#N)=C(/C)O)cc2OCc2c(F)cccc2Cl)c1 | 40.3 | 79.7 | – | –
CCC(CC)Oc1cc(NC(=O)/C(C#N)=C(/C)O)c(F)cc1-c1cccc(OC)c1 | 84.6 | 98.1 | 7.79 | –
C/C(O)=C(\C#N)C(=O)Nc1cc(OC(C)C)c(-c2cccc(C(F)(F)F)c2)cc1F | – | – | 7.99 | Activity [4]: Non-Toxic; Activity [5]: Non-Toxic; Activity [6]: Non-Toxic; Activity [7]: Non-Toxic; pIC50 (Raji): 7.15; Activity [8]: Toxic; Activity [9]: Toxic; inhibition in vivo at 30 mg/kg (HCT-116 [10]): 54.4%; Activity [11]: Non-Toxic; Activity [12]: Non-Toxic; Activity [13]: Non-Toxic; Activity [14]: Non-Toxic; pIC50 (HCT-116 [15]): 6.52; Activity [16]: Toxic
CCC(C)Oc1cc(NC(=O)/C(C#N)=C(/C)O)c(F)cc1-c1cccc(F)c1C (centres undefined) | 82.5 | 97.8 | 7.58 | –
CCC(C)Oc1cc(NC(=O)/C(C#N)=C(/C)O)c(F)cc1-c1ccccc1C (centres undefined) | 78.6 | 96.6 | 7.51 | –
CCC(C)Oc1cc(NC(=O)/C(C#N)=C(/C)O)c(F)cc1-c1cccc(F)c1 (centres undefined) | 83.6 | 97.2 | 7.57 | –
CCC(C)Oc1cc(NC(=O)/C(C#N)=C(/C)O)c(F)cc1-c1cc(F)cc(F)c1 (centres undefined) | 85.1 | 98.8 | 7.65 | –
